For one test, the target named is JAK3 enzyme (Homo sapiens (Human), UniProt P52333). As to the kind of experiment: JAK3 isolated enzyme high ATP Caliper endpoint assay. It is filed as biochemical. The settings on record: 400 μM ATP, read-out: JAK-3 IC50.
The target of a further test is JAK1 enzyme (Homo sapiens (Human), UniProt P23458). Kind of test: JAK1 isolated enzyme high ATP Caliper endpoint assay.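 Note: enzyme at 10 nM preincubated with inhibitor 30 min, then kinase reaction 120 min at room temperature, peptide phosphorylation read by microfluidic mobility shift with fluorescence, inhibition relative to HPE and ZPE plate controls.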 It is filed as biochemical. The settings on record: 2.5 mM ATP, read-out: JAK-1 IC50.
JAK1 enzyme, sequence (P23458 whole entry): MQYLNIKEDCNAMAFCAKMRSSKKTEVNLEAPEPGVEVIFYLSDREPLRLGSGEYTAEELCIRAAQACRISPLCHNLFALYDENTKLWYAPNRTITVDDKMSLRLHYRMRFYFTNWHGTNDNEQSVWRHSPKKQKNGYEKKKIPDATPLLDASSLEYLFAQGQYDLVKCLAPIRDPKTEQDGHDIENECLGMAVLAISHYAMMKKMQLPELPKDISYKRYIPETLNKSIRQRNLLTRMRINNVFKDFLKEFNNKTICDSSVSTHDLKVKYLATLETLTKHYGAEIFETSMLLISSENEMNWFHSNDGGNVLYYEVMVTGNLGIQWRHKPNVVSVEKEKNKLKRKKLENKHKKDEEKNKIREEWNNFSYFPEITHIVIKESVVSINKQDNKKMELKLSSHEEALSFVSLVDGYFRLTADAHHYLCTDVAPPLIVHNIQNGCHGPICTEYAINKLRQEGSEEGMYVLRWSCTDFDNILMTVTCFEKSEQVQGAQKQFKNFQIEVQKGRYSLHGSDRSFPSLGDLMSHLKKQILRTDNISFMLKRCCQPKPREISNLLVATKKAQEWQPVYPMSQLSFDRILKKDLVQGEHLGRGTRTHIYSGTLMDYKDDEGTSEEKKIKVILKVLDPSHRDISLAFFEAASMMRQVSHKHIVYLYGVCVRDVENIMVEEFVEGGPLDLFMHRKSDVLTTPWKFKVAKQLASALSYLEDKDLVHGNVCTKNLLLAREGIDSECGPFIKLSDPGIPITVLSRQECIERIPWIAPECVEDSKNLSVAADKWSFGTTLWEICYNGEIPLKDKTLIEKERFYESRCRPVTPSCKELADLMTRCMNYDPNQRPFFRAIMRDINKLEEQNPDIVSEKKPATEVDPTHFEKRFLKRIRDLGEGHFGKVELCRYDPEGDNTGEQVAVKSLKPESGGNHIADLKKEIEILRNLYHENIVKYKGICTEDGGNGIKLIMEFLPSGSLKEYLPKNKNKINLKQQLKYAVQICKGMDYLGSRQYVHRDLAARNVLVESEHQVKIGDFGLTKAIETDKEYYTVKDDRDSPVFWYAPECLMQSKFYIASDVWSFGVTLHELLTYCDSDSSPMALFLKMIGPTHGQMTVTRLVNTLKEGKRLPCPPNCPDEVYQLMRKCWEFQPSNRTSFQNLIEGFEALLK

Structures can show the parent of a compound that is named as a salt.

JAK3 enzyme, sequence (P52333 whole entry): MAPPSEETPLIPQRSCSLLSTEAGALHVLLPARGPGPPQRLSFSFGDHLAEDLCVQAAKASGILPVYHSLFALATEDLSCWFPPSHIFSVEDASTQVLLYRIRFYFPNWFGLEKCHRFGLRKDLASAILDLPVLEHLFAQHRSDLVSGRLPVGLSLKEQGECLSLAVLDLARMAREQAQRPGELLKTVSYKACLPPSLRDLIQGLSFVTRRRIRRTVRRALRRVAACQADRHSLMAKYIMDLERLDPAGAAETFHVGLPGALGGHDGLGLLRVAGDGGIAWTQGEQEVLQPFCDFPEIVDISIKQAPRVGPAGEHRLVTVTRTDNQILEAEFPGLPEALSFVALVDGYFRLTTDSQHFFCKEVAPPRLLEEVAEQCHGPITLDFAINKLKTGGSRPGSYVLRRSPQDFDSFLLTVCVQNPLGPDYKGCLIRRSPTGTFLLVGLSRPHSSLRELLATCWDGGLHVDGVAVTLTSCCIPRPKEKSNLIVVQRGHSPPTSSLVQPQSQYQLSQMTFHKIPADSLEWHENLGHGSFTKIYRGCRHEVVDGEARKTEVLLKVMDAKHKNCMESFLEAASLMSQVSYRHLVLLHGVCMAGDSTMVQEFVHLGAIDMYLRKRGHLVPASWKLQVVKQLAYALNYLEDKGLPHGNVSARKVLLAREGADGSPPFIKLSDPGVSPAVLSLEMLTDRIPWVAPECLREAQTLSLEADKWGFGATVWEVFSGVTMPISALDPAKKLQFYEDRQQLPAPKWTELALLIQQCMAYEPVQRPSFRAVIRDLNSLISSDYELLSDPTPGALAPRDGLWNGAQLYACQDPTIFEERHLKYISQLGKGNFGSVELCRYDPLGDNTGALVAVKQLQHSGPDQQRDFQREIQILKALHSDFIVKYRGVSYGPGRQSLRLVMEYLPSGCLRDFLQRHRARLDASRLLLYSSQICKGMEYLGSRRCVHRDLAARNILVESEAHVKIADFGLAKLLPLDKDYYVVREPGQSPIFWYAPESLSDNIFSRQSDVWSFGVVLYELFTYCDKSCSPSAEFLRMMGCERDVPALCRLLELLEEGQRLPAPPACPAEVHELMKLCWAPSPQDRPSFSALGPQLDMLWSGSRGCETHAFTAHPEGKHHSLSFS
Procedure for JAK1 enzyme: JAK1 Isolated Enzyme High ATP Caliper Endpoint Assay
4 mM stock solutions of test compounds are prepared and serially diluted in 100% DMSO. A standard curve using PF-00956980 (commercially available from Sigma Aldrich) at a top concentration of 4 mM is also prepared. High percentage effect (HPE) is defined by 500 μM PF-00956980 and 0% effect (ZPE) is defined by 100% DMSO. Greiner 384 well plates are prepared containing 400 nl of serially diluted compound, standard and HPE/ZPE. Final top assay concentration is 80 μM as the assay dilution factor is fifty.
JAK1 enzyme (Invitrogen) stock solution is made up at 5.2 μM in sterile water. JAK1 enzyme stock is diluted to 20 nM in assay buffer (10 mM HEPES free acid pH 7.5, 10 mM HEPES free base pH 7.5, 10 mM MgCL2, 0.0005% Tween-20, 0.01% BSA) containing 2 mM DTT (all supplied by Sigma) with the addition of one protease tablet per 25 mls buffer (Roche). ATP is made up at 10 mM stock in sterile water and diluted to 5 mM in assay buffer. Peptide H236 (Caliper Life Sciences) is made up at 1.5 mM in 100% DMSO and diluted to 3 μM in assay buffer. Stop buffer comprises 140 mM HEPES, 22.5 mM EDTA (Sigma) and 0.15% coating reagent (Caliper Life Sciences).
Assays are performed in Greiner polypropylene 384 well plates. Following compound preparation within the plate 10 μl of enzyme in assay buffer containing DTT is added using a Multidrop Micro. Final assay concentration of enzyme is 10 nM. Compound and enzyme are pre-incubated for 30 minutes at room temperature using low evaporation lids before addition of 10 μl ATP/peptide mixture in assay buffer using a Multidrop Micro. Final assay concentrations are 2.5 mM ATP and 1.5 μM peptide. Plates are foil sealed and incubated for a further 120 minutes at room temperature. Stop solution is added to the plates (20 μl/well) using a Multidrop Micro and plates are loaded onto the Caliper EZReader II. Data is generated by the shift in mobility of non-phosphorylated peptide substrates and phosphorylated products by electrophoresis within a chip and detected via LED induced fluorescence. Data is analysed using LabChip EZReader software which calculates the relative heights of the substrate and product peaks and reports product/product plus substrate peak ratio. Test compound data are subsequently expressed as percentage inhibition defined by HPE and ZPE values for each plate. Percentage inhibition in the presence of test compound is plotted against compound concentration on a log scale to determine an IC50 from the resultant sigmoid curve.
Procedure for JAK3 enzyme: JAK3 Isolated Enzyme High ATP Caliper Endpoint Assay
4 mM stock solutions of test compounds are prepared and serially diluted in 100% DMSO. […] Greiner 384 well plates are prepared containing 400 nl of serially diluted compound, standard and HPE/ZPE. Final top assay concentration is 80 μM as the assay dilution factor is fifty.
JAK3 enzyme stock is diluted to 2 nM in assay buffer (10 mM HEPES free acid pH 7.5, 10 mM HEPES free base pH 7.5, 10 mM MgCL2, 0.0005% Tween-20, 0.01% BSA) containing 2 mM DTT (all supplied by Sigma). ATP is made up at 10 mM stock in sterile water and diluted to 800 μM in assay buffer. Peptide (American peptide company) is made up at 30 mM in 100% DMSO and diluted to 3 μM in assay buffer.
Assays are performed in Greiner polypropylene 384 well plates. Following compound preparation within the plate 10 μl of enzyme in assay buffer containing DTT is added using a Multidrop Micro. Final assay concentration of enzyme is 1 nM. Compound and enzyme are pre-incubated for 60 minutes at room temperature using low evaporation lids before addition of 10 μl ATP/peptide mixture in assay buffer using a Multidrop Micro. […] Plates are foil sealed and incubated for a further 60 minutes at room temperature. Stop solution is added to the plates (20 μl/well) using a Multidrop Micro and plates are loaded onto the Caliper EZReader II. Data is generated by the shift in mobility of non-phosphorylated peptide substrates and phosphorylated products by electrophoresis within a chip and detected via LED induced fluorescence. Data is analysed using LabChip EZReader software which calculates the relative heights of the substrate and product peaks and reports product/product plus substrate peak ratio. Test compound data are subsequently expressed as percentage inhibition defined by HPE and ZPE values for each plate. Percentage inhibition in the presence of test compound is plotted against compound concentration on a log scale to determine an IC50 from the resultant sigmoid curve.

As to `CCc1cc(O)c(F)cc1-c1ccc2c(-c3nc4c([nH]3)CCN(Cc3ccc(Oc5ccccc5)nc3)C4)n[nH]c2c1` [Example 24, 5-Ethyl-2-fluoro-4-{3-[5-(6-phenoxy-pyridin-3-ylmethyl)-4,5,6,7-tetrahydro-1H-imidazo[4,5-c]pyridin-2-yl]-1H-indazol-6-yl}-phenol], the half-inhibitory concentration (IC50) amounted to 2.4 nM at JAK3 enzyme and 6.2 nM on JAK1 enzyme.

In the case of `CCc1cc(O)c(F)cc1-c1ccc2c(-c3nc4c([nH]3)CCN(Cc3ccc(N5CCCCC5)nc3)C4)n[nH]c2c1` [Example 25, 5-Ethyl-2-fluoro-4-{3-[5-(3,4,5,6-tetrahydro-2H-[1,2′]bipyridinyl-5′-ylmethyl)-4,5,6,7-tetrahydro-1H-imidazo[4,5-c]pyridin-2-yl]-1H-indazol-6-yl}-phenol], at JAK1 enzyme, the IC50 was 4 nM.

In the case of “{2-[6-(2-Ethyl-5-fluoro-4-hydroxy-phenyl)-1H-indazol-3-yl]-1,4,6,7-tetrahydro-imidazo[4,5-c]pyridin-5-yl}-isothiazol-3-yl-methanone [Example 3]”, the IC50 at JAK1 enzyme came out at 3.7 nM.

In the case of `CCc1cc(O)c(F)cc1-c1ccc2c(-c3nc4c([nH]3)CCN(Cc3cnc5ccccc5c3)C4)n[nH]c2c1` [Example 23, 5-Ethyl-2-fluoro-4-[3-(5-quinolin-3-ylmethyl-4,5,6,7-tetrahydro-1H-imidazo[4,5-c]pyridin-2-yl)-1H-indazol-6-yl]-phenol], the IC50 stood at 1.2 nM on JAK3 enzyme and 1.7 nM on JAK1 enzyme.

Turning to `CCc1cc(O)c(F)cc1-c1ccc2c(-c3nc4c([nH]3)CCN(Cc3ccc5cccnc5n3)C4)n[nH]c2c1` [Example 28, 5-Ethyl-2-fluoro-4-[3-(5-[1,8]naphthyridin-2-ylmethyl-4,5,6,7-tetrahydro-1H-imidazo[4,5-c]pyridin-2-yl)-1H-indazol-6-yl]-phenol], the IC50 on JAK3 enzyme stood at 10.9 nM; on JAK1 enzyme, 13.7 nM.

Turning to `CCc1cc(O)c(F)cc1-c1ccc2c(-c3nc4c([nH]3)CCN(S(=O)(=O)c3ccc(Oc5ccccc5)nc3)C4)n[nH]c2c1` [Example 7, 5-Ethyl-2-fluoro-4-{3-[5-(6-phenoxy-pyridine-3-sulfonyl)-4,5,6,7-tetrahydro-1H-imidazo[4,5-c]pyridin-2-yl]-1H-indazol-6-yl}-phenol], the IC50 on JAK3 enzyme came out at 1.5 nM; at JAK1 enzyme it was 2.5 nM.

Regarding `CCc1cc(O)c(F)cc1-c1ccc2c(-c3nc4c([nH]3)CCN(C(=O)c3ccsn3)CC4)n[nH]c2c1` [Example 11, {2-[6-(2-Ethyl-5-fluoro-4-hydroxy-phenyl)-1H-indazol-3-yl]-4,5,7,8-tetrahydro-1H-imidazo[4,5-d]azepin-6-yl}-isothiazol-3-yl-methanone], the IC50 on JAK3 enzyme is 1 nM; at JAK1 enzyme, 2.5 nM.

On to `CCc1cc(O)c(F)cc1-c1ccc2c(-c3nc4c([nH]3)CCN(C(=O)c3ccc(Cl)cn3)CC4)n[nH]c2c1` [Example 8, (5-Chloro-pyridin-2-yl)-{2-[6-(2-ethyl-5-fluoro-4-hydroxy-phenyl)-1H-indazol-3-yl]-4,5,7,8-tetrahydro-1H-imidazo[4,5-d]azebin-6-yl}-methanone], for which the IC50 was 1.4 nM on JAK3 enzyme and 2.9 nM on JAK1 enzyme.

Turning to `CCc1cc(O)c(F)cc1-c1ccc2c(-c3nc4c([nH]3)CCN(Cc3ccccc3)CC4)n[nH]c2c1` [Example 14, 4-[3-(6-Benzyl-1,4,5,6,7,8-hexahydro-imidazo[4,5-d]azepin-2-yl)-1H-indazol-6-yl]-5-ethyl-2-fluoro-phenol], the figures for the IC50 at JAK3 enzyme and at JAK1 enzyme were 1.4 nM and 0.8 nM, respectively.

For the compound `CCc1cc(O)c(F)cc1-c1ccc2c(-c3nc4c([nH]3)CCN(C(=O)c3cc(C#N)ccn3)CC4)n[nH]c2c1` [Example 9, 2-{2-[6-(2-Ethyl-5-fluoro-4-hydroxy-phenyl)-1H-indazol-3-yl]-4,5,7,8-tetrahydro-1H-imidazo[4,5-d]azepine-6-carbonyl}-isonicotinonitrile], the IC50 at JAK3 enzyme came out at 1.9 nM; on JAK1 enzyme it was 18.9 nM.

For `CCc1cc(O)c(F)cc1-c1ccc2c(-c3nc4c([nH]3)CCN(C(=O)c3ccc(Cl)cn3)C4)n[nH]c2c1` [Example 15, (5-Chloro-pyridin-2-yl)-{2-[6-(2-ethyl-5-fluoro-4-hydroxy-phenyl)-1H-indazol-3-yl]-1,4,6,7-tetrahydro-imidazo[4,5-d]pyridin-5-yl}-methanone], the IC50 at JAK3 enzyme is 1 nM.

`CCc1cc(O)c(F)cc1-c1ccc2c(-c3nc4c([nH]3)CCN(Cc3cccc(OC)c3)C4)n[nH]c2c1` [Example 22, 5-Ethyl-2-fluoro-4-{3-[5-(3-methoxy-benzyl)-4,5,6,7-tetrahydro-1H-imidazo[4,5-c]pyridin-2-yl]-1H-indazol-6-yl}-phenol formic acid salt]: the IC50 stood at 2.6 nM at JAK3 enzyme and 3 nM on JAK1 enzyme.

With `CCc1cc(O)c(F)cc1-c1ccc2c(-c3nc4c([nH]3)CCN(C(=O)c3ccsn3)C4)n[nH]c2c1` [Example 2, {2-[6-(2-Ethyl-5-fluoro-4-hydroxy-phenyl)-1H-indazol-3-yl]-1,4,6,7-tetrahydro-imidazo[4,5-c]pyridin-5-yl}-isothiazol-3-yl-methanone], the figures for the concentration for half-maximal inhibition (IC50) on JAK3 enzyme and at JAK1 enzyme were 0.5 nM and 46 nM, respectively.

Regarding `CCc1cc(O)c(F)cc1-c1ccc2c(-c3nc4c([nH]3)CCN(S(=O)(=O)c3ccc(F)cc3)C4)n[nH]c2c1` [Example 12, 5-Ethyl-2-fluoro-4-{3-[5-(4-fluoro-benzenesulfonyl)-4,5,6,7-tetrahydro-1H-imidazo[4,5-c]pyridin-2-yl]-1H-indazol-6-yl}-phenol], the IC50 is 1.6 nM on JAK3 enzyme and 1.2 nM at JAK1 enzyme.

With `CCc1cc(O)c(F)cc1-c1ccc2c(-c3nc4c([nH]3)CCN(Cc3ccc(O)cc3)C4)n[nH]c2c1` [Example 19, 5-Ethyl-2-fluoro-4-{3-[5-(4-hydroxy-benzyl)-4,5,6,7-tetrahydro-1H-imidazo[4,5-c]pyridin-2-yl]-1H-indazol-6-yl}-phenol], the results for the IC50 on JAK3 enzyme and at JAK1 enzyme were 2.2 nM and 4.3 nM, respectively.

Consider `CCc1cc(O)c(F)cc1-c1ccc2c(-c3nc4c([nH]3)CCN(Cc3ccnc(C#N)c3)C4)n[nH]c2c1` [Example 21, 4-{2-[6-(2-Ethyl-5-fluoro-4-hydroxy-phenyl)-1H-indazol-3-yl]-1,4,6,7-tetrahydro-imidazo[4,5-c]pyridin-5-ylmethyl}-pyridine-2-carbonitrile], for which the IC50 at JAK3 enzyme was determined as 1.4 nM; on JAK1 enzyme, 5.9 nM.

Regarding `CCc1cc(O)c(F)cc1-c1ccc2c(-c3nc4c([nH]3)CCN(Cc3cccnc3C#N)C4)n[nH]c2c1` [Example 26, 3-{2-[6-(2-Ethyl-5-fluoro-4-hydroxy-phenyl)-1H-indazol-3-yl]-1,4,6,7-tetrahydro-imidazo[4,5-c]pyridin-5-ylmethyl}-pyridine-2-carbonitrile], the results for the IC50 at JAK3 enzyme and at JAK1 enzyme were 4.1 nM and 4 nM, respectively.

Consider `CCc1cc(O)c(F)cc1-c1ccc2c(-c3nc4c([nH]3)CCN(S(=O)(=O)c3ccc(N5CCOCC5)nc3)C4)n[nH]c2c1` [Example 6, 5-Ethyl-2-fluoro-4-{3-[5-(6-morpholin-4-yl-pyridine-3-sulfonyl)-4,5,6,7-tetrahydro-1H-imidazo[4,5-c]pyridin-2-yl]-1H-indazol-6-yl}-phenol], for which the results for the IC50 on JAK3 enzyme and on JAK1 enzyme were 1.3 nM and 8.4 nM, respectively.

Take `CCc1cc(O)c(F)cc1-c1ccc2c(-c3nc4c([nH]3)CCN(Cc3cccc(O)c3)C4)n[nH]c2c1` [Example 20, 5-Ethyl-2-fluoro-4-{3-[5-(3-hydroxy-benzyl)-4,5,6,7-tetrahydro-1H-imidazo[4,5-c]pyridin-2-yl]-1H-indazol-6-yl}-phenol]: the figures for the IC50 at JAK3 enzyme and at JAK1 enzyme were 5.6 nM and 2.6 nM, respectively.

On to `O=C(c1ccc(F)cc1)N1CCc2[nH]c(-c3n[nH]c4cc(-c5cc(F)c(O)cc5CC(F)(F)F)ccc34)nc2C1` [Example 30, (2-{6-[5-Fluoro-4-hydroxy-2-(2,2,2-trifluoro-ethyl)-phenyl]-1H-indazol-3-yl}-1,4,6,7-tetrahydro-imidazo[4,5-c]pyridin-5-yl)-(4-fluoro-phenyl)-methanone diethylamine salt], for which the figures for the half-maximal inhibitory concentration (IC50) at JAK3 enzyme and at JAK1 enzyme were 6.7 nM and 7.7 nM, respectively.

As for `CCc1cc(O)c(F)cc1-c1ccc2c(-c3nc4c([nH]3)CCN(C(=O)c3cnc(Oc5ccccc5F)cn3)C4)n[nH]c2c1` [Example 13, {2-[6-(2-Ethyl-5-fluoro-4-hydroxy-phenyl)-1H-indazol-3-yl]-1,4,6,7-tetrahydro-imidazo[4,5-c]pyridin-5-yl}-[5-(2-fluoro-phenoxy)-Dvrazin-2-yl]-methanone], the IC50 on JAK3 enzyme was determined as 3.6 nM; at JAK1 enzyme it was 1.5 nM.

Consider `CCc1cc(O)c(F)cc1-c1ccc2c(-c3nc4c([nH]3)CCN(C(=O)c3ccc(F)cc3)CC4)n[nH]c2c1` [Example 10, {2-[6-(2-Ethyl-5-fluoro-4-hydroxy-phenyl)-1H-indazol-3-yl]-4,5,7,8-tetrahydro-1H-imidazo[4,5-d]azepin-6-yl}-(4-fluoro-phenyl)-methanone], for which the IC50 at JAK3 enzyme is 1.3 nM; on JAK1 enzyme it was 4.5 nM.

With `Oc1cc(CC(F)(F)F)c(-c2ccc3c(-c4nc5c([nH]4)CCN(Cc4ccccc4)C5)n[nH]c3c2)cc1F` [Example 31, 4-[3-(5-Benzyl-4,5,6,7-tetrahydro-1H-imidazo[4,5-c]pyridin-2-yl)-1H-indazol-6-yl]-2-fluoro-5-(2,2,2-trifluoro-ethyl)-phenol diethylamine salt], the IC50 on JAK3 enzyme was 186 nM; on JAK1 enzyme, 66 nM.

As to `O=C(c1cnc(N2CCCCC2)cn1)N1CCc2[nH]c(-c3n[nH]c4cc(-c5cc(F)c(O)cc5CC(F)(F)F)ccc34)nc2C1` [Example 29, (2-{6-[5-Fluoro-4-hydroxy-2-(2,2,2-trifluoro-ethyl)-pheny]-1H-indazol-3-yl}-1,4,6,7-tetrahydro-imidazo[4,5-c]pyridin-5-yl)-(5-piperidin-1-yl-pyrazin-2-yl)-methanone diethylamine salt], the results for the IC50 on JAK3 enzyme and on JAK1 enzyme were 42 nM and 1.1 nM, respectively.

As for `CCc1cc(O)c(F)cc1-c1ccc2c(-c3nc4c([nH]3)CCN(C(=O)c3ccc(F)cc3)C4)n[nH]c2c1` [Example 1, {2-[6-(2-Ethyl-5-fluoro-4-hydroxy-phenyl)-1H-indazol-3-yl]-1,4,6,7-tetrahydro-imidazo[4,5-c]pyridin-5-yl}-(4-fluoro-phenyl)-methanone], the IC50 on JAK3 enzyme was below 0.6 nM; at JAK1 enzyme, below 0.7 nM.

What is called IC50 is the point on the concentration scale where inhibition reaches its midpoint.

These data come from US8895544B2, “Indazoles” (Pfizer Limited, priority 2011, dated 2014).
